According to patent US11434479B2, “Sialic acid binding polypeptide” (priority 2017, dated 2022):
Substitutions are numbered along the chain they refer to.

What was measured:
[1] = target: T1, Streptococcus pneumoniae NanB fragment (residues 30-697, SEQ ID NO:4) variant Sia-PS4, E541A (Streptococcus pneumoniae serotype 4, UniProt Q54727, E541A); assay: Bio-layer Interferometry (BLI) steady-state binding to immobilized oligosaccharides; settings: in words
T1 construct: exemplified by a NanB fragment (residues 30-697); poly-histidine; made in house; host or cells: pET28a+ based plasmid
T1 sequence (Q54727 30-692 E541A): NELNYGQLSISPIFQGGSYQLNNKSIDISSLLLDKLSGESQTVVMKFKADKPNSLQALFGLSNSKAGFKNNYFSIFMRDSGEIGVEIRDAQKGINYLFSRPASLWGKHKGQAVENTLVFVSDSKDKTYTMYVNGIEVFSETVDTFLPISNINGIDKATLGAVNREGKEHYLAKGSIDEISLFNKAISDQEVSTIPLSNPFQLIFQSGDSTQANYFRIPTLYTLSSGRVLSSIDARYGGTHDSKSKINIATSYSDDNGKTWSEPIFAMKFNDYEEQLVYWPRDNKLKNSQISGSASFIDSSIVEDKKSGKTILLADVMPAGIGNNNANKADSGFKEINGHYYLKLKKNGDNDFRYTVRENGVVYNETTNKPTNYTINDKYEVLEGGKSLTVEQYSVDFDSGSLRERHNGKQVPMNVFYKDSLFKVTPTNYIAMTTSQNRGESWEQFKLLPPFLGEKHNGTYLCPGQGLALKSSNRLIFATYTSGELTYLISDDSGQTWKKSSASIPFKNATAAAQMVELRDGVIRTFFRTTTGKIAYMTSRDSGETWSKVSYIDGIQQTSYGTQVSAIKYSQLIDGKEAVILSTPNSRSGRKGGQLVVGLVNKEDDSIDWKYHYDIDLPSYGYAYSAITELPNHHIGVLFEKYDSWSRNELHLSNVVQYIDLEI
Text: (§1) Lsp=lactose (no sialic acid), 3′SL=α2,3-sialyllactose, 6′SL=α2,6-sialyllactose, GD3=GD3 oligosaccharide that contains a terminal α2,8-linked Neu5Ac residue and an internal α2,3-linked Neu5Ac residue.
(§2) The pan-specific sialic acid-recognizing affinity reagent of the invention is exemplified by a NanB fragment (residues 30-697; SEQ ID NO:4) with a single mutation. Exemplary mutation sites include Y653, D270, and E541. Exemplary pan-specific affinity reagents, each having a single mutation in the NanB GH domain as noted, are shown in Table 2 and include Sia-PS1 (Y653F), Sia-PS2 (D270A), Sia-PS3 (D270N), Sia-PS4 (E541A), and Sia-PS5 (E541Q). […] They reduce (Sia-PS2 and Sia-PS3) or effectively eliminate (Sia-PS1, Sia-PS4, and Sia-PS5) catalytic activity, and they broaden specificity for sialic acid ligand binding. The pan-specific sialic acid-recognizing affinity reagent we chose for further validation study was Sia-PS1 that contains the Y653F at active site residue Tyr653. This one mutation, which involves removal of a single hydroxyl group, not only eliminates enzyme activity, but astonishingly introduces pan-specific binding into the mutated, inactivated enzyme, despite its distance from the carbohydrate binding module (CBM) domain of the NanB.
(§3) The flowchart presented in FIG. 2 outlines schematically the methods employed in Example I and II to screen, optimize and select the Lectenz® candidates. The specificity and affinity of potential Lectenz® candidates is evaluated through structurally-guided site-specific and/or site-saturation mutagenesis assays designed to enable the selection of optimal clones. Bio-layer Interferometry (BLI) is used to determine the binding kinetics and affinities for binding to glycans and glycoproteins. Affinity chromatography is performed by immobilizing the Lectenz® candidates in a column format to evaluate their ability to fractionate sialylated- and asialo-glycans and glycoconjugates. All promising Lectenz® candidates are screened against the glycan array at the CFG, which currently contains over 600 O- and N-linked glycans.
(§4) Steady-state binding constants between Lectenz® candidates and sialic acid ligands were measured by BLI.

[2] = target: T2, Streptococcus pneumoniae NanB fragment (residues 30-697, SEQ ID NO:4) variant Sia-PS5, E541Q (Streptococcus pneumoniae serotype 4, UniProt Q54727, E541Q); assay: as above; settings: in words
T2 construct: exemplified by a NanB fragment (residues 30-697); poly-histidine; made in house; host or cells: pET28a+ based plasmid
T2 sequence (Q54727 30-692 E541Q): T1 sequence (Q54727 30-692 E541A) with A512Q
Text: as §1, §2, §3, §4

SMILES	KD value [1]	binding affinity [1]	binding affinity [2]
CC(=O)N[C@H]1[C@H]([C@H](O)[C@H](O)CO)O[C@@](O[C@H]2[C@@H](O)[C@@H](CO)O[C@@H](O[C@H]3[C@H](O)[C@@H](O)C(O)O[C@@H]3CO)[C@@H]2O)(C(=O)O)C[C@@H]1O (stereo partly drawn) [3′SL, α2,3-sialyllactose]	sub-micromolar	micromolar or sub-micromolar	micromolar or sub-micromolar
CC(=O)N[C@H]1[C@H]([C@H](O)[C@H](O)CO)O[C@@](OC[C@H]2O[C@@H](O[C@H]3[C@H](O)[C@@H](O)C(O)O[C@@H]3CO)[C@H](O)[C@@H](O)[C@H]2O)(C(=O)O)C[C@@H]1O (stereo partly shown) [6′SL, 6′-sialyllactose (Neu5Acα2,6Galβ1, 4Glcβ, or 6′SL)]	–	micromolar or sub-micromolar	micromolar or sub-micromolar
CC(=O)N[C@H]1[C@H]([C@H](O)[C@H](O)CO)O[C@@](O[C@H](CO)[C@@H](O)[C@@H]2O[C@@](O[C@H]3[C@@H](O)[C@@H](CO)O[C@@H](O[C@H]4[C@H](O)[C@@H](O)C(O)O[C@@H]4CO)[C@@H]3O)(C(=O)O)C[C@H](O)[C@H]2NC(C)=O)(C(=O)O)C[C@@H]1O (stereo partly shown) [GD3, Neu5Acα2,8Neu5Acα2,3Galβ1, 4Glcβ]	–	micromolar or sub-micromolar	micromolar or sub-micromolar
